For one data set, the system named is Aspergillus niger. Put plainly: Antifungal activity against Aspergillus niger assessed as diameter of inhibition zone at 100 ppm. In kind it is functional. To be noted: read-out: DIZ.
A further data set relates to Bacillus subtilis. As to the kind of experiment: Antibacterial activity against Bacillus subtilis assessed as diameter of inhibition zone at 100 ppm. The note with it: read-out: DIZ. In kind it is functional.
The subject of the next data set is Escherichia coli. Put plainly: Antibacterial activity against Escherichia coli assessed as diameter of inhibition zone at 100 ppm. In kind it is functional. The note with it: read-out: DIZ.
The test system of a further data set is Pseudomonas aeruginosa. Put plainly: Antibacterial activity against Pseudomonas aeruginosa assessed as diameter of inhibition zone at 100 ppm. In kind it is functional. To be noted: read-out: DIZ.
In data set [1] the target is Amine oxidase [flavin-containing] B (Rattus norvegicus, UniProt P19643). Put plainly: Inhibition of rat brain synaptosome MAO-B. In kind it is subcellular.
Chain of Amine oxidase [flavin-containing] B (Rattus norvegicus, UniProt P19643) (P19643 whole entry): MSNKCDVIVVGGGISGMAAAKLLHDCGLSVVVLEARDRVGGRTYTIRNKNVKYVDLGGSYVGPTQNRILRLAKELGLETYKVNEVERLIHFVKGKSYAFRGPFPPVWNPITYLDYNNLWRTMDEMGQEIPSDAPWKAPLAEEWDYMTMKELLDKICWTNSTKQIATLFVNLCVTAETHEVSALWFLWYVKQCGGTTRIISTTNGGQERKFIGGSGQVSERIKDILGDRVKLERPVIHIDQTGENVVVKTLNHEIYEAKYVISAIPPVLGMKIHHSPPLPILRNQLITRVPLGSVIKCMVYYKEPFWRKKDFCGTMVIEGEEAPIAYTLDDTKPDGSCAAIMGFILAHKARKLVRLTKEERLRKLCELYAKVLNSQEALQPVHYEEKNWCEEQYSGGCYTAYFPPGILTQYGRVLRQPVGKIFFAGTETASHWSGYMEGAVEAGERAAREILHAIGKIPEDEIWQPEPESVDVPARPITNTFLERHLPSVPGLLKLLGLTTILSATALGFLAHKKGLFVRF
For a further data set, the species on record is Homo sapiens. As to the kind of experiment: Selectivity index, ratio of Ki for human MAO-B to Ki for human MAO-A.
Data set [2] has as its target Amine oxidase [flavin-containing] A (Rattus norvegicus, UniProt P21396). Put plainly: Inhibition of rat brain synaptosome MAO-A. In kind it is subcellular.
Data set [3] concerns the target T1, Amine oxidase [flavin-containing] A (Homo sapiens, UniProt P21397).
T1 sequence (P21397 whole entry): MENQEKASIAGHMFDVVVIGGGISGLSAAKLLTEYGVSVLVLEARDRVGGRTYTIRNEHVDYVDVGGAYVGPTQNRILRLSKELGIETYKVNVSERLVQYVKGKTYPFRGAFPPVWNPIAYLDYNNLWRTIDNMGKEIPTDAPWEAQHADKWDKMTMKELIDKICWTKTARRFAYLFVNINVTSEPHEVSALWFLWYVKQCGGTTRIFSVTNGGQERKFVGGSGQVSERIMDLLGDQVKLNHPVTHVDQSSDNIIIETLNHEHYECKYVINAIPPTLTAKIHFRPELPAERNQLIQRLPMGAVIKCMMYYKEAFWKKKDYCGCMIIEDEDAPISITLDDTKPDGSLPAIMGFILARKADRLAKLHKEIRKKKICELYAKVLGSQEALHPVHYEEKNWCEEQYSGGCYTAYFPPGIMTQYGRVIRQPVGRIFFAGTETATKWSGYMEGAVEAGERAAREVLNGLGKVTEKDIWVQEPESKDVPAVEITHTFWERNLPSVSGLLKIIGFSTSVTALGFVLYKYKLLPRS
As to the kind of experiment: Inhibition of human MAO-A.

Data set [4] concerns the target T2, Amine oxidase [flavin-containing] B (Homo sapiens, UniProt P27338).
T2 sequence (P27338 whole entry): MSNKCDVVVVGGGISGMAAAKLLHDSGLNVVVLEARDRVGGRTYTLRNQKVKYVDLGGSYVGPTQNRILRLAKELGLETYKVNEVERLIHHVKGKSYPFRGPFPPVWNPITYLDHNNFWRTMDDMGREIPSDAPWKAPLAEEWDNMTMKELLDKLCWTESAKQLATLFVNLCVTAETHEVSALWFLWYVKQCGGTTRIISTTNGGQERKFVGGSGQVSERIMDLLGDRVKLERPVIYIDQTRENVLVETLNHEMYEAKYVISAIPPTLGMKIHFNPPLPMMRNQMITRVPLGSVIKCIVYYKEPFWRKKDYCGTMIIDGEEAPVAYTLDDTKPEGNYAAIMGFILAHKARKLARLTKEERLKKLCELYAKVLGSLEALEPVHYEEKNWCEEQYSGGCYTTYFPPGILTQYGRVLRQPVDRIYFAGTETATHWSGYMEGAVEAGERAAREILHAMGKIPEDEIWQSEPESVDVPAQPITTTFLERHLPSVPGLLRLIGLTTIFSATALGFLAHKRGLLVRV
As to the kind of experiment: Inhibition of human MAO-B.

For data set [5], the target named is T1, Amine oxidase [flavin-containing] A. As to the kind of experiment: Inhibition of MAO-A (unknown origin) relative to control.
Data set [6] addresses Cholinesterase (Equus caballus) (UniProt P81908). As to the kind of experiment: Inhibition of equine serum BChE at 10^-3 M relative to control. The class given is cell-free. The note with it: dose 1.0 10^-3M.
Data set [7] deals with T2, Amine oxidase [flavin-containing] B. Put plainly: Inhibition of MAO-B (unknown origin).
Another data set relates to HepG2. Put plainly: Cytotoxicity against human HepG2 cells. In kind it is functional, cell-based.
The next data set concerns PC-3. Put plainly: Cytotoxicity against human PC-3 cells. In kind it is functional, cell-based.
Data set [8] relates to PC-12. As to the kind of experiment: Anti amyotrophic lateral sclerosis activity in rat PC-12 cells assessed as decrease in G93A SOD1 aggregate formation. In kind it is functional. To be noted: read-out: ED50 (the source's name).
For data set [9], the system named is PC-12. As to the kind of experiment: Cytotoxicity against rat PC-12 cells. To be noted: read-out: LD50 (the source's name). The class given is functional.
In data set [10] the target is Aldo-keto reductase family 1 member B1 (Homo sapiens, UniProt P15121). As to the kind of experiment: Inhibition of aldose reductase (unknown origin).
The test system of data set [11] is Ehrlich. As to the kind of experiment: Cytotoxicity against mouse Ehrlich ascites cells assessed as dead cells at 100 ug/ml. The class given is functional. To be noted: dose 100 µg/ml.
Another data set has as its system MCF7. As to the kind of experiment: Cytotoxicity against human MCF7 cells. The class given is functional, cell-based.
The subject of data set [12] is Ehrlich. As to the kind of experiment: Cytotoxicity against mouse Ehrlich ascites cells assessed as dead cells at 500 ug/ml. The class given is functional. To be noted: dose 500 µg/ml.
In data set [13] the test system is Ehrlich. As to the kind of experiment: Cytotoxicity against mouse Ehrlich ascites cells assessed as dead cells at 25 ug/ml. In kind it is functional. The note with it: dose 25 µg/ml.
Data set [14] can be described thus: Selectivity index, ratio of CC50 african green monkey Vero cells to IC50 for Mycobacterium tuberculosis. In kind it is toxicity. The note with it: read-out: Ratio CC50/IC50.
Data set [15] concerns Mycobacterium tuberculosis. Put plainly: Antibacterial activity against Mycobacterium tuberculosis. The class given is functional, organism-based.
Data set [16] concerns Mycobacterium tuberculosis. Put plainly: Antibacterial activity against Mycobacterium tuberculosis H37Rv. In kind it is functional.
The nature of data set [17]: Selectivity index, ratio of IC50 mouse […] 3T3 cells to MIC for Mycobacterium tuberculosis H37Rv. The class given is toxicity. To be noted: NIH 3T3 cells, read-out: Selectivity Index.
Data set [18] has as its target T3, Prostaglandin G/H synthase 2 (Ovis aries, UniProt P79208).
T3 sequence (P79208 whole entry): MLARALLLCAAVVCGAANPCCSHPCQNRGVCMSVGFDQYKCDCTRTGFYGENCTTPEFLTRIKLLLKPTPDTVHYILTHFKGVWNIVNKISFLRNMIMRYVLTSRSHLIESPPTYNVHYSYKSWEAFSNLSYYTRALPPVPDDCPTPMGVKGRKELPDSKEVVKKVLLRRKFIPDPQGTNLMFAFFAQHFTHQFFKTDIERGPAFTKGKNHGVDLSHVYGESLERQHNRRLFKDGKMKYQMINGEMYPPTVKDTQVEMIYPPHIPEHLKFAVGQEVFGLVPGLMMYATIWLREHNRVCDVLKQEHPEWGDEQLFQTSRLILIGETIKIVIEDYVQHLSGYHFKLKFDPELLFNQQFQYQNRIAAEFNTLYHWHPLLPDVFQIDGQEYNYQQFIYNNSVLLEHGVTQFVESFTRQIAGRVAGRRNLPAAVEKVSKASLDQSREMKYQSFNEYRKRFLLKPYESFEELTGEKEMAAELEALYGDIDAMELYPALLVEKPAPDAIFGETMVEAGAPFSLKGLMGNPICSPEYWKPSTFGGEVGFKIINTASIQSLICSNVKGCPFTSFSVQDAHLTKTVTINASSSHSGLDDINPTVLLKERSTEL
As to the kind of experiment: Inhibition of ovine COX-2.

The species entered for the next data set is Ovis aries. As to the kind of experiment: Selectivity index, ratio of IC50 for ovine COX-1 to IC50 for ovine COX-2.
For data set [19], the target named is T4, Prostaglandin G/H synthase 1 (Ovis aries, UniProt P05979).
T4 sequence (P05979 whole entry): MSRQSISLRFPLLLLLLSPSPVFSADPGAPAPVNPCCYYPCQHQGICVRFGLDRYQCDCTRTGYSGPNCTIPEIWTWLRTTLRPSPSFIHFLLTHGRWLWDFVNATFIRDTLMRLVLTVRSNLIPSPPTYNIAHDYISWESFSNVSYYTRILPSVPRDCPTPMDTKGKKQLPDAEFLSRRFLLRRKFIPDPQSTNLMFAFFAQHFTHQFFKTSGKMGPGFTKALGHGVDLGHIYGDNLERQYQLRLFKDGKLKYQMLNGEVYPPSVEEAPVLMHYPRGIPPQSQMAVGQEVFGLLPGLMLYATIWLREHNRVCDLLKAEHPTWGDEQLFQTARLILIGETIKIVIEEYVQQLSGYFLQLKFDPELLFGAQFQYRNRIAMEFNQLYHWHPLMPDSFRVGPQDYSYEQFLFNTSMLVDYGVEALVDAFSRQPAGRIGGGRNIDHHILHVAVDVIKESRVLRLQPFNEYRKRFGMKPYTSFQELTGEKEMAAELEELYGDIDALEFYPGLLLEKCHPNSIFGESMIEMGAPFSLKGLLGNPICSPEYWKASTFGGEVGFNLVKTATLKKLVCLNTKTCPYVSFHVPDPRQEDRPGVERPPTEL
As to the kind of experiment: Inhibition of ovine COX-1.

The next data set addresses Acetylcholinesterase (Electrophorus electricus, UniProt O42275). Put plainly: Inhibition of electric eel AChE.

≈ marks a conversion by molar mass, not a printed value.

Broadly, the IC50 is the concentration that inhibits the measured activity by half. By Ki is commonly meant the equilibrium dissociation constant of an inhibitor or competing ligand from its target. The inhibition is the drop in the measured response relative to a control, in per cent. For orientation: MIC means the lowest concentration that inhibits growth of the organism.

Chain of Cholinesterase (Equus caballus) (P81908 whole entry): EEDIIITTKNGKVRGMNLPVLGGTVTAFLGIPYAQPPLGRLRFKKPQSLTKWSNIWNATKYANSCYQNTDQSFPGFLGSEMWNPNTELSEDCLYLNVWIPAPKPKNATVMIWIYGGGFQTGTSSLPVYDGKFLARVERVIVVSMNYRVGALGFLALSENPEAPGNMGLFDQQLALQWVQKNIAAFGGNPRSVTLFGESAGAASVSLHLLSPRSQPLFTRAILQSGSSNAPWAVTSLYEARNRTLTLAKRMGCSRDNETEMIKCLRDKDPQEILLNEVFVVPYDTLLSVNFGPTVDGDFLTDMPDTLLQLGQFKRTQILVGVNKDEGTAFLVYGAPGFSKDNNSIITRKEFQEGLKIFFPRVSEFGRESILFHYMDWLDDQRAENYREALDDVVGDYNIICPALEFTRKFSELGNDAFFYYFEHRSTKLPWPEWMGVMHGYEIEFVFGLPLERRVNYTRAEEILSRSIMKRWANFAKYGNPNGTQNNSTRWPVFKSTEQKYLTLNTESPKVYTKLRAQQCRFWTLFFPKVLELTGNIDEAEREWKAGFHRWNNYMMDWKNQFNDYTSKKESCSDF
Chain of Acetylcholinesterase (O42275 whole entry): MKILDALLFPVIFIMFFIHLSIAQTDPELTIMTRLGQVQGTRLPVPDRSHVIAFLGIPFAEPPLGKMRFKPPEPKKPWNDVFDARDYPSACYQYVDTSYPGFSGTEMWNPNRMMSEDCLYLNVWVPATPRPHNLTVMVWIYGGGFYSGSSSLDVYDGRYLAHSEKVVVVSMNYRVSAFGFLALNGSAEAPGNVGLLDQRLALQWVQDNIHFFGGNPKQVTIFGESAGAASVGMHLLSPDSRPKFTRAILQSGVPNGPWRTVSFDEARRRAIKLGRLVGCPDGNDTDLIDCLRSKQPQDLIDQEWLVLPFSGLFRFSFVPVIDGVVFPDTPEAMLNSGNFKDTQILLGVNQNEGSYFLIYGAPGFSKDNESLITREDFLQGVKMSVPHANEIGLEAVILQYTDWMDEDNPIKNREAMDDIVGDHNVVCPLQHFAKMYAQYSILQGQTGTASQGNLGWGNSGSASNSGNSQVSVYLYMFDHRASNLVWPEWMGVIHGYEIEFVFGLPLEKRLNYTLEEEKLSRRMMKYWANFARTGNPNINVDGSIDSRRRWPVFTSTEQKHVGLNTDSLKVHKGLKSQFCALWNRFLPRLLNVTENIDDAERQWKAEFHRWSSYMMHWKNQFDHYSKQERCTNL
Chain of Amine oxidase [flavin-containing] A (Rattus norvegicus, UniProt P21396) (P21396 whole entry): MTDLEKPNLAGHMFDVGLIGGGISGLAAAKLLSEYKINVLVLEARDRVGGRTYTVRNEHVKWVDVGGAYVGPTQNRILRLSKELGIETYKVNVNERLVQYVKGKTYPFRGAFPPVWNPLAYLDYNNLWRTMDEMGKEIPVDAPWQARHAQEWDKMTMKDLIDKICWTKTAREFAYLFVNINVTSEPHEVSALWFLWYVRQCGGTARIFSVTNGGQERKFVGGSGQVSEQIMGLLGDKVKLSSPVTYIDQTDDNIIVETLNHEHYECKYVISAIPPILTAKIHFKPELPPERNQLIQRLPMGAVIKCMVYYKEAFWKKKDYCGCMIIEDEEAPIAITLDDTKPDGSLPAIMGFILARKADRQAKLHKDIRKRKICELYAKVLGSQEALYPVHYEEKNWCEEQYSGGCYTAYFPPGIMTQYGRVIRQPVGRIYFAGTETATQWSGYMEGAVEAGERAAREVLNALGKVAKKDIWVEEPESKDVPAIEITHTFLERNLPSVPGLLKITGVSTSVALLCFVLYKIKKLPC

Regarding `Cc1ccc(/N=N/c2c(N)n[nH]c2N)cc1`, the zone of inhibition at 100 µg/mL in the data set on Aspergillus niger came out at 25.5 mm; in the data set with Bacillus subtilis it was 25.3 mm; in the data set on Escherichia coli, 23.1 mm; in the data set with Pseudomonas aeruginosa, 19.3 mm.
As for `Cc1c(-c2cc(C#N)c(N)o2)c(=O)n(-c2ccccc2)n1C`, the figures for the IC50 in data set [1] and in [2] were 45.4 nM and 7.99 nM, respectively. Further, the Ratio Ki in the data set listed under Homo sapiens was found to be 2210. In addition, the Ki in data set [3] was 0.346 nM; in data set [4], 766 nM.
Regarding `Cc1c(/N=C/c2ccc(OCCCN(C)C)cc2)c(=O)n(-c2ccccc2)n1C`, the “inhibition (INH)” value in data set [5] came out at 38.1%. Besides, in [6], the inhibition came out at 35.3%. In [7], this molecule gave a half-maximal inhibitory concentration (IC50) of 49 nM.
As to `CC/C(=N/NC(=O)c1ccco1)c1c(C)nn(-c2ccccc2)c1O`, the IC50 in the data set on HepG2 is 5.69 µg/mL (≈ 16.8 µM); in the data set with PC-3, 6.8 µg/mL (≈ 20.1 µM).
Take `Cc1cc(SCc2cc(=O)[nH][nH]2)c(Cl)cc1Cl`: the EC50 with PC-12 [8] is 400 nM. Moreover, the CC50 with PC-12 [9] is above 100000 nM.
Regarding `NC(=S)N1N=C(N)/C(=C\c2cc(-c3ccc(Cl)cc3)nn2-c2ccccc2)C1=O`, the IC50 in data set [10] worked out at 6300 nM.
As to `O=c1[nH]cc(F)c(=O)[nH]1` [FLUOROURACIL], the IC50 in the data set with HepG2 is 7.9 µg/mL (≈ 60.7 µM); in the data set on PC-3, 8.3 µg/mL (≈ 63.8 µM); with MCF7 it was 5.5 µg/mL (≈ 42.3 µM). Besides, the Activity is recorded as 97.3% with Ehrlich [11], 68% in the data set on Ehrlich [12] and 38.6% in the data set with Ehrlich [13].
As to `O=C1CC(NC(=O)CNc2ccc(Cl)cc2)=NN1`, the selectivity ratio in data set [14] was 633. In addition, in data set [15], the IC50 is below 370 nM.
In data set [16], `CC1=NN(NCC(=O)c2ccccc2)C(=O)/C1=N/Nn1c(-c2ccccc2)nc2ccccc2c1=O` registered an MIC of 3.11 µg/mL (≈ 6.49 µM). The selectivity ratio in [17] came out at 26.4.
As to `NS(=O)(=O)c1ccc(N2N=C/C(=N/Nc3ccccc3C(=O)O)C2=O)cc1`, the IC50 was determined as 770 nM in [18] and 4080 nM in [19]. The Ratio IC50 in the data set filed under Ovis aries is 5.29.
As to `Cc1cccc(C)c1/C=N/c1c(C)n(C)n(-c2ccccc2)c1=O`, the “inhibition (INH)” value in data set [5] worked out at 42.3%. At Acetylcholinesterase, the IC50 was 57 nM. In addition, in data set [6], the inhibition turned out to be 96.3%.
